SMILES	melting point
CCCCn1cnc2c(OCC)nc(Nc3ccc(OC)nc3)nc21 [compound 56, 2-[(2-Methoxypyrid-5-yl)amino]-6-ethoxy-9-butyl-9H-purine]	170 to 172 °C
CCCCn1cnc2c(OCCOC)nc(Nc3ccc(OC)nc3)nc21 [compound 57, 2-[(2-Methoxypyrid-5-yl)amino]-6-(2-methoxyethoxy)-9-butyl-9H-purine]	138 to 140 °C
CCCCn1cnc2c(OCCF)nc(Nc3ccc(OC)nc3)nc21 [compound 58, 2-[(2-Methoxypyrid-5-yl)amino]-6-(2-fluoroethoxy)-9-butyl-9H-purine]	163 to 164 °C
CCCCn1cnc2c(OCC(F)F)nc(Nc3ccc(OC)nc3)nc21 [compound 59, 2-[(2-Methoxypyrid-5-yl)amino]-6-(2,2-difluoroethoxy)-9-butyl-9H-purine]	165 to 167 °C
CCCCn1cnc2c(OCC(C)C)nc(Nc3ccc(OC)nc3)nc21 [compound 60, 2-[(2-Methoxypyrid-5-yl)amino]-6-(2-methylprop-1-oxy)-9-butyl-9H-purine]	88 to 90 °C
C=CCOc1nc(Nc2ccc(OC)nc2)nc2c1ncn2CCCC [compound 61, 2-[(2-Methoxypyrid-5-yl)amino]-6-(2-propen-1-oxy)-9-butyl-9H-purine]	174 to 176 °C
CCCCn1cnc2c(OCC3CCCO3)nc(Nc3ccc(OC)nc3)nc21 (stereo not drawn) [compound 62, 2-[(2-Methoxypyrid-5-yl)amino]-6-tetrahydrofurfuryloxy-9-butyl-9H-purine]	147 to 149 °C
CCCCn1cnc2c(OCc3ccccn3)nc(Nc3ccc(OC)nc3)nc21 [compound 63, 2-[(2-Methoxypyrid-5-yl)amino]-6-(pyrid-2-ylmethoxy)-9-butyl-9H-purine]	150 to 153 °C
CCCCn1cnc2c(Oc3ccccc3)nc(Nc3ccc(OC)nc3)nc21 [compound 64, 2-[(2-Methoxypyrid-5-yl)amino]-6-phenoxy-9-butyl-9H-purine]	146 to 148 °C
CCCn1cnc2c(OCC(C)C)nc(Nc3ccc(OC)nc3)nc21 [compound 65, 2-[(2-Methoxypyrid-5-yl)amino]-6-(2-methylprop-1-oxy)-9-propyl-9H-purine]	113 to 115 °C
CCCn1cnc2c(Oc3ccccc3)nc(Nc3ccc(OC)nc3)nc21 [compound 66, 2-[(2-Methoxypyrid-5-yl)amino]-6-phenoxy-9-propyl-9H-purine]	188 to 190 °C
C=C(C)COc1nc(Nc2ccc(OC)nc2)nc2c1ncn2CCCC [compound 67, 2-[(2-Methoxypyrid-5-yl)amino]-6-(2-methyl-2-propen-1-oxy)-9-butyl-9H-purine]	131 to 133 °C
CCCCn1cnc2c(OCC3CC3)nc(Nc3ccc(OC)nc3)nc21 [compound 68, 2-[(2-Methoxypyrid-5-yl)amino]-6-cyclopropylmethoxy-9-butyl-9H-purine]	148 to 150 °C
C=CCSc1nc(Nc2ccc(OC)nc2)nc2c1ncn2CCCC [compound 69, 2-[(2-Methoxypyrid-5-yl)amino]-6-allylthio-9-butyl-9H-purine]	107 to 109 °C
CCCCn1cnc2c(OCC)nc(Nc3ccc(OCC)nc3)nc21 [compound 71, 2-[(2-Ethoxypyrid-5-yl)amino]-6-ethoxy-9-butyl-9H-purine]	167 to 169 °C
CCCCn1cnc2c(OCCOC)nc(Nc3ccc(OCC)nc3)nc21 [compound 72, 2-[(2-Ethoxypyrid-5-yl)amino]-6-(2-methoxyethoxy)-9-butyl-9H-purine]	123 to 125 °C
C=CCOc1nc(Nc2ccc(OCC)nc2)nc2c1ncn2CCCC [compound 73, 2-[(2-Ethoxypyrid-5-yl)amino]-6-(2-propen-1-oxy)-9-butyl-9H-purine]	158 to 160 °C
CCCCn1cnc2c(OCCF)nc(Nc3ccc(OCC)nc3)nc21 [compound 74, 2-[(2-Ethoxypyrid-5-yl)amino]-6-(2-fluoroethoxy)-9-butyl-9H-purine]	156 to 157 °C

The next lines start with the values.

melting point	SMILES
108 to 110 °C	C=C(C)COc1nc(Nc2ccc(OCC)nc2)nc2c1ncn2CCCC [compound 75, 2-[(2-Ethoxypyrid-5-yl)amino]-6-(2-methyl-2-propen-1-oxy)-9-butyl-9H-purine]
116 to 118 °C	CCCCn1cnc2c(OCc3cccs3)nc(Nc3ccc(OCC)nc3)nc21 [compound 76, 2-[(2-Ethoxypyrid-5-yl)amino]-6-(thien-2-ylmethoxy)-9-butyl-9H-purine]
112 to 114 °C	C=C(C)COc1nc(Nc2ccc(OCC)nc2)nc2c1ncn2CCC [compound 77, 2-[(2-Ethoxypyrid-5-yl)amino]-6-(2-methyl-2-propen-1-oxy)-9-propyl-9H-purine]
151 to 153 °C	C#CCOc1nc(Nc2ccc(OCC)nc2)nc2c1ncn2CCCC [compound 78, 2-[(2-Ethoxypyrid-5-yl)amino]-6-(2-propyn-1-oxy)-9-butyl-9H-purine]
151 to 152 °C	CCCCn1cnc2c(OCC(F)F)nc(Nc3ccc(OCC)nc3)nc21 [compound 80, 2-[(2-Ethoxypyrid-5-yl)amino]-6-(2,2-difluoroethoxy)-9-butyl-9H-purine]
77 to 80 °C	CCCCn1cnc2c(OCC(=O)OCC)nc(Nc3ccc(OCC)nc3)nc21 [compound 82, 2-[(2-Ethoxypyrid-5-yl)amino]-6-carboethoxymethoxy-9-butyl-9H-purine]
96 to 98 °C	CCCCn1cnc2c(OCC(C)C)nc(Nc3ccc(OCC)nc3)nc21 [compound 83, 2-[(2-Ethoxypyrid-5-yl)amino]-6-(2-methylprop-1-oxy)-9-butyl-9H-purine]
166 to 168 °C	CCCCn1cnc2c(OCCO)nc(Nc3ccc(OCC)nc3)nc21 [compound 84, 2-[(2-Ethoxypyrid-5-yl)amino]-6-(2-hydroxyethoxy)-9-butyl-9H-purine]
186 to 188 °C	CCCCn1cnc2c(OCC)nc(Nc3cnc4ccccc4c3)nc21 [compound 86, 2-[(Quinolin-3-yl)amino]-6-ethoxy-9-butyl-9H-purine]
215 to 220 °C	CCCCn1cnc2c(OCCC)nc(Nc3cnc4ccccc4c3)nc21 [compound 87, 2-[(Quinolin-3-yl)amino]-6-propoxy-9-butyl-9H-purine]
161 to 163 °C	CCCCn1cnc2c(OCCOC)nc(Nc3cnc4ccccc4c3)nc21 [compound 88, 2-[(Quinolin-3-yl)amino]-6-(2-methoxyethoxy)-9-butyl-9H-purine]
68 to 71 °C	CCCCn1cnc2c(OCC(C)C)nc(Nc3cnc4ccccc4c3)nc21 [compound 89, 2-[(Quinolin-3-yl)amino]-6-(2-methylprop-1-oxy)-9-butyl-9H-purine]
106 to 108 °C	C=C(C)COc1nc(Nc2cnc3ccccc3c2)nc2c1ncn2CCCC [compound 91, 2-[(Quinolin-3-yl)amino]-6-(2-methyl-2-propen-1-oxy)-9-butyl-9H-purine]
188 to 192 °C	C=CCOc1nc(Nc2cnc3ccccc3c2)nc2c1ncn2CCCC [compound 92, 2-[(Quinolin-3-yl)amino]-6-(2-propen-1-oxy)-9-butyl-9H-purine]
181 to 183 °C	CCCCn1cnc2c(OCCF)nc(Nc3cnc4ccccc4c3)nc21 [compound 93, 2-[(Quinolin-3-yl)amino]-6-(2-fluoroethoxy)-9-butyl-9H-purine]
160 to 161 °C	CCCCn1cnc2c(OC)nc(Nc3ccc4c(c3)OCO4)nc21 [compound 95, 2-[(3,4-Methylenedioxyphenyl)amino]-6-methoxy-9-butyl-9H-purine]
150 to 152 °C	CCCCn1cnc2c(OCC)nc(Nc3ccc4ncsc4c3)nc21 [compound 96, 2-[(Benzothiazol-6-yl)amino]-6-ethoxy-9-butyl-9H-purine]
129 to 130 °C	CCCCn1cnc2c(OCC)nc(NCc3ccc(OC)cc3)nc21 [compound 97, 2-[(4-Methoxybenzyl)amino]-6-ethoxy-9-butyl-9H-purine]
